According to patent publication US9982138B2, “Hair color compositions comprising stable violet-blue to blue imidazolium dyes” (Noxell Corporation, priority 2016, dated 2018):
Structures can show the parent of a compound that is named as a salt.

Columns and labels:
Assay type in all cases: physicochemical
[1] = Color (λmax) by UV/visible spectrophotometer
[2] = Storage stability: disappearance of the dye on storage at pH 10, 25° C. (UV/visible absorbance); conditions: % loss on 1-month storage at pH 10, 25° C.
Protocol: Disappearance of the dye is measured on a Cary 100 UV/visible spectrophotometer using a 1 cm cuvette. A solution of the dye is prepared at a concentration sufficient to give an absorbance of 0.9-1.1 at the dye's λmax when buffered at pH 10.0. The absorbance is measured after storage at 25° C. Percent disappearance is calculated as the difference between the starting absorbance (A0) and the absorbance (At) at a specific storage period divided by the starting absorbance minus the baseline absorbance (Ab), by the following equation: […]

[3] = In-use disappearance of the dye in ammonia buffer with hydrogen peroxide (UV/visible absorbance); conditions: % loss recorded at 30 minutes in the presence of a 3% peroxide solution at pH 10.58
Protocol: Disappearance of the dye is measured on a Cary 100 UV/visible spectrophotometer. A solution of the dye in 50% aqueous ethanol at a concentration sufficient to give an absorbance of 2.0 at the dye's λmax and buffered at pH 10.6 with ammonia is mixed with an equal volume of 6% hydrogen peroxide in a 1 cm quartz cuvette. […]

Row | SMILES | Color (λmax; nm) [1] | % Disappearance (Storage) [2] | % Disappearance (In-use) [3]
1 | CCN1CCN(CC)c2cc(/N=N/c3n(CCC[N+](C)(C)C)cc[n+]3CCC[N+](C)(C)C)ccc21 [Compound 2, (E)-2-((1,4-diethyl-1,2,3,4-tetrahydroquinoxalin-6-yl)diazenyl)-1,3-bis(3-(trimethyl-ammonio)propyl)-1H-imidazol-3-ium tribromide] | 580 nm | 0.71% | 0%
2 | CN1CCNc2cc(/N=N/c3n(CCCN)cc[n+]3CCCN)ccc21.Cl.Cl.[Br-] [Compound 3, (E)-1,3-bis(3-ammoniopropyl)-2-((1-methyl-1,2,3,4-tetrahydroquinoxalin-6-yl)diazenyl)-1H-imidazol-3-ium bromide dichloride] | 580 nm | 4.55% | 1.91%
3 | CCCCCN1CCNc2cc(/N=N/c3n(CCCN)cc[n+]3CCCN)ccc21.Cl.Cl.[Br-] [Compound 5, (E)-1,3-bis(3-ammoniopropyl)-2-((1-pentyl-1,2,3,4-tetrahydroquinoxalin-6-yl)diazenyl)-1H-imidazol-3-ium bromide dichloride] | 582 nm | 3.14% | 2.9%
4 | C=CCN1CCN(CC=C)c2cc(/N=N/c3n(CCCCN)cc[n+]3CCCCN)ccc21 [Compound 7] | 580 nm | 4.79% | 0.8%
5 | Cn1cc[n+](C)c1/N=N/c1cc2c3c(c1)OCCN3CCO2 [Compound 8, (E)-1,3-dimethyl-2-((2,3,4,5-tetrahydro-1,6-dioxa-3a-azaphenalen-8-yl)diazenyl)-1H-imidazol-3-ium methyl sulfate] | 553 nm | 1.27% | 1.28%

Now from value to molecule:

Row | Color (λmax; nm) [1] | % Disappearance (Storage) [2] | % Disappearance (In-use) [3] | SMILES
6 | 587 nm | 2.05% | 2.0% | CCN1CCN(CC)c2cc(/N=N/c3n(CCCN)cc[n+]3CCCN)ccc21.Cl.Cl.[Br-] [Compound 1, (E)-1,3-bis(3-ammoniopropyl)-2-((1,4-diethyl-1,2,3,4-tetrahydroquinoxalin-6-yl)diazenyl)-1H-imidazol-3-ium bromide dichloride]
7 | 599 nm | 3.86% | 1.85% | CCCCCN1CCN(CCCCC)c2cc(/N=N/c3n(CCCCN)cc[n+]3CCCCN)ccc21.Cl.Cl.[Br-] [Compound 4, (E)-1,3-bis(4-ammoniobutyl)-2-((1,4-dipentyl-1,2,3,4-tetrahydroquinoxalin-6-yl)diazenyl)-1H-imidazol-3-ium bromide dichloride]
8 | 592 nm | 3.47% | 10.86% | CCN1CCN(CC)c2cc(/N=N/c3n(CCC[N+](C)(C)C)cc[n+]3CCC[N+](C)(C)C)ccc21 [Compound 6]
9 | 587 nm | 3.37% | 1.85% | CCN1CCN(CC)c2cc(/N=N/c3n(CCCCN)cc[n+]3CCCCN)ccc21 [Compound 9]
